pIC50: −log10 of the molar value.
How the values were obtained:
Format in all cases: biochemical
Met = biological target: T1, Met (Homo sapiens, UniProt P08581); assay: AlphaScreen kinase assay, Met; settings: read-out: IC50, activity toward kinase Met
T1 construct: P1818.pETN6 BI-PTP MET G1056-G1364-X WT; His6 (N); made in house; host or cells: E. coli (PTP1B co-expressed)
Method in brief: (§1)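 Inhibition reads as diminished acceptor emission, since unphosphorylated peptide fails to bridge antibody acceptor beads and streptavidin donor beads. Titration: eight points, 1:3 steps, stocks at 20 mM in DMSO.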

Jnk1 = biological target: T2, Jnk1 (Homo sapiens, UniProt P45983); assay: AlphaScreen kinase assay, Jnk1; settings: read-out: IC50, activity toward kinase Jnk1
T2 construct: purchased Upstate Biotechnology

Src = biological target: T3, Src (Homo sapiens, UniProt P12931); assay: AlphaScreen kinase assay, Src; settings: read-out: IC50, activity toward kinase Src
T3 construct: P1144. pET-N6 BI-PTP SRC V86-L536-X; made in house

c-Raf-1 = biological target: T4, c-Raf-1 (Homo sapiens, UniProt P04049); assay: AlphaScreen kinase assay, c-Raf-1; settings: read-out: IC50, activity toward kinase c-Raf-1
T4 construct: purchased Upstate Biotechnology

Flt1 = biological target: T5, Flt1 (Homo sapiens, UniProt P17948); assay: AlphaScreen kinase assay, Flt1; settings: read-out: IC50, activity toward kinase Flt1
T5 construct: P1826.pETN6 BI-PTP FLT1 M799-D1165-X WT; His6 (N); made in house; host or cells: E. coli (PTP1B co-expressed)
T5 sequence (P17948 with tags, fused parts or gaps): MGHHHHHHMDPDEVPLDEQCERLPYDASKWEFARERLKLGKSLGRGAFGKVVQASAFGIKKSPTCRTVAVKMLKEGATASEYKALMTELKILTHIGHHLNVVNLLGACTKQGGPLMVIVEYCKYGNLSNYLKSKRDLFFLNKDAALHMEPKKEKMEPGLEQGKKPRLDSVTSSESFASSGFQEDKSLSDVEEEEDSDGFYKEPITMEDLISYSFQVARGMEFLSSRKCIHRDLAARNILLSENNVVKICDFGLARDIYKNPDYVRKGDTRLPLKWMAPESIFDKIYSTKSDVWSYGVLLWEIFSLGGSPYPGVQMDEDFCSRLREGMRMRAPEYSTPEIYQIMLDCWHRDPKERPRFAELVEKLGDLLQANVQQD

Akt3 = Akt3 (Homo sapiens, UniProt Q9Y243); assay: AlphaScreen kinase assay, Akt3; settings: read-out: IC50, activity toward kinase Akt3
Method in brief: as §1

Pyk2 = biological target: T6, Pyk2 (Homo sapiens, UniProt Q14289); assay: AlphaScreen kinase assay, Pyk2; settings: read-out: IC50, activity toward kinase Pyk2
T6 construct: purchased Upstate Biotechnology

Abl = biological target: T7, Abl (Homo sapiens, UniProt P00519); assay: AlphaScreen kinase assay, Abl; settings: read-out: activity toward kinase Abl, IC50
T7 construct: P1121. pET-SPEC BI-PTP Abl G227-V515-X; His6 (N); made in house; host or cells: E. coli (PTP1B co-expressed)
T7 sequence (P00519 with tags, fused parts or gaps): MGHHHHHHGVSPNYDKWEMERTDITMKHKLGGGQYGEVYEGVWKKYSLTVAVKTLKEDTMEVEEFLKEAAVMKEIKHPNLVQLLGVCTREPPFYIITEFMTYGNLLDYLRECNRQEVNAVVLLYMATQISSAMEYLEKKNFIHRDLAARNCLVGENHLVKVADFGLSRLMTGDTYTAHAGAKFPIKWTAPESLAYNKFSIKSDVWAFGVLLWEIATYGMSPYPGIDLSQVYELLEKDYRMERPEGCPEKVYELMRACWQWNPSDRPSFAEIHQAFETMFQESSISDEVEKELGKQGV
Method in brief: as §1

T2 sequence (P45983 whole entry): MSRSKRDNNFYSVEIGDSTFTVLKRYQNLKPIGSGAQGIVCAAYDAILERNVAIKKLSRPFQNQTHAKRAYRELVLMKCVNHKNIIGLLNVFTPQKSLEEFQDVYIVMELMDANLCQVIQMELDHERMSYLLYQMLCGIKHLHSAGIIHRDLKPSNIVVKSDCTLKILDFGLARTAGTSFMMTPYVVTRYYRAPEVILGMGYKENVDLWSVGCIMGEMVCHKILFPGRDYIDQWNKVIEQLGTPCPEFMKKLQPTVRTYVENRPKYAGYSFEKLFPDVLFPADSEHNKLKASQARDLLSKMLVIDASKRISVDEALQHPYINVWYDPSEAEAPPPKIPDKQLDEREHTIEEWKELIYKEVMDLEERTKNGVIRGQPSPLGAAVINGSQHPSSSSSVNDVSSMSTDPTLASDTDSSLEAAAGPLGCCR
T1 sequence (P08581 with tags, fused parts or gaps): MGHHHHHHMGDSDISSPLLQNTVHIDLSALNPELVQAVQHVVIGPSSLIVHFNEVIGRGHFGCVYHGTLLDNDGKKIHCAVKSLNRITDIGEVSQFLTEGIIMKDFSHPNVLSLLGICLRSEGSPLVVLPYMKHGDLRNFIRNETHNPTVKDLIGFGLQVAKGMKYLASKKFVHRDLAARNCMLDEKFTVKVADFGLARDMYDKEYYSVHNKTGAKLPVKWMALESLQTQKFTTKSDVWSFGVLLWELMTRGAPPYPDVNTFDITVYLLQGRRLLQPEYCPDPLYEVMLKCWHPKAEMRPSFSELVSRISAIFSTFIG
T6 sequence (Q14289 whole entry): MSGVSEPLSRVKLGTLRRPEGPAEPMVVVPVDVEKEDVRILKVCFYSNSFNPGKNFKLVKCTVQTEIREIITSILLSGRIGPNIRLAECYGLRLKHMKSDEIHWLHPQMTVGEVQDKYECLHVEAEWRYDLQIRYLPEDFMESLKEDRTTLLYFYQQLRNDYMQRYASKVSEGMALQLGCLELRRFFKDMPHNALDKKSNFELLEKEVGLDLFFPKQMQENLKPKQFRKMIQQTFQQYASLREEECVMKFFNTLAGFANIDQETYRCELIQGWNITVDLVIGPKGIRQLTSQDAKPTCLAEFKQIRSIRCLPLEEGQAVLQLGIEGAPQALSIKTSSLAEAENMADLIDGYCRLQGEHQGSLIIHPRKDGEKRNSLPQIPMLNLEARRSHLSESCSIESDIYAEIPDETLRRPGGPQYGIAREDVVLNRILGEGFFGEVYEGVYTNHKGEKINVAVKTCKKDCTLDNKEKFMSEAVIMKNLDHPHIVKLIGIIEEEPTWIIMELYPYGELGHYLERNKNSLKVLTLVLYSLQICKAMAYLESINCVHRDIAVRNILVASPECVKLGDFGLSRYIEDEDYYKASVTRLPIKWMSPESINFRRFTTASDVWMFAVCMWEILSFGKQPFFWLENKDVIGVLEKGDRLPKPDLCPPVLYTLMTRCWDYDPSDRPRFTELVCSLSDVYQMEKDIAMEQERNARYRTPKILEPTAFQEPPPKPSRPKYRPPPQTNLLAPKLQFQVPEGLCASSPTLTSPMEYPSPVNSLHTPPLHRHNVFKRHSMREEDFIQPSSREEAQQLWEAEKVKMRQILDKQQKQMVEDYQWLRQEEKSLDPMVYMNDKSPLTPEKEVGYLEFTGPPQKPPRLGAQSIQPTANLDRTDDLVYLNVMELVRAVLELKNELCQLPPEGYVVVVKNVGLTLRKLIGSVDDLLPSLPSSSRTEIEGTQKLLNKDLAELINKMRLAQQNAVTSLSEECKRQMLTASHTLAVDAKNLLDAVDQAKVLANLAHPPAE
Sequence of Akt3 (Q9Y243 whole entry): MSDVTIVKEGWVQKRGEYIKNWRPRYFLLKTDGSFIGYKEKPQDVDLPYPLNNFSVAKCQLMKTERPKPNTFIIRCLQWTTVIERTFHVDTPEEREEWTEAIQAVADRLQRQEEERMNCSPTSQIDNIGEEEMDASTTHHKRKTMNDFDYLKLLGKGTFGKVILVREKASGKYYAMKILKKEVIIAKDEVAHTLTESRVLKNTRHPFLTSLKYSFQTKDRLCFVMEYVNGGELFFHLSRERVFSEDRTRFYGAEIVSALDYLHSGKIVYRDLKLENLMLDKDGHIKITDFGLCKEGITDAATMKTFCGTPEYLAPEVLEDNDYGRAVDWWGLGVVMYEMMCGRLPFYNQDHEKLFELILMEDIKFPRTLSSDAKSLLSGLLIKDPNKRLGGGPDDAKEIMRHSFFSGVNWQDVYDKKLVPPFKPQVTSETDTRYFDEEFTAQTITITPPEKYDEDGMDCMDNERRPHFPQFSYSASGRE
T4 sequence (P04049 whole entry): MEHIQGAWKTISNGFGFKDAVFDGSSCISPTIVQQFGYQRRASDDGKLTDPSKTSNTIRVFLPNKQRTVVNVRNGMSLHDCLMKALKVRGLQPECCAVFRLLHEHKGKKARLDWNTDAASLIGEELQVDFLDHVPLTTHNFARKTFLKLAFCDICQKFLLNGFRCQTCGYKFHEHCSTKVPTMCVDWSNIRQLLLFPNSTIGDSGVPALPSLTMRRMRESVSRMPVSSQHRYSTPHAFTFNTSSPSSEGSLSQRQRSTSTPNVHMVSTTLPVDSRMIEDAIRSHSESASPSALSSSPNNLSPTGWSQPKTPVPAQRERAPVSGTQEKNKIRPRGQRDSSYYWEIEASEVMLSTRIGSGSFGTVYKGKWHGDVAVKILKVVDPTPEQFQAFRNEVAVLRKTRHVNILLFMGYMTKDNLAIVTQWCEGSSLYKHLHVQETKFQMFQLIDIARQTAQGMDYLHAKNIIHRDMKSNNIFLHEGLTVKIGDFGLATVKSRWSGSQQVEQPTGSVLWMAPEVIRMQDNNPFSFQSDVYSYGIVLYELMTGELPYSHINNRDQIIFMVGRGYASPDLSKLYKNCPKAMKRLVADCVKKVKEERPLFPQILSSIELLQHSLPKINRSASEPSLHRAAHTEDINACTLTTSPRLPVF
T3 sequence (P12931 with tags, fused parts or gaps): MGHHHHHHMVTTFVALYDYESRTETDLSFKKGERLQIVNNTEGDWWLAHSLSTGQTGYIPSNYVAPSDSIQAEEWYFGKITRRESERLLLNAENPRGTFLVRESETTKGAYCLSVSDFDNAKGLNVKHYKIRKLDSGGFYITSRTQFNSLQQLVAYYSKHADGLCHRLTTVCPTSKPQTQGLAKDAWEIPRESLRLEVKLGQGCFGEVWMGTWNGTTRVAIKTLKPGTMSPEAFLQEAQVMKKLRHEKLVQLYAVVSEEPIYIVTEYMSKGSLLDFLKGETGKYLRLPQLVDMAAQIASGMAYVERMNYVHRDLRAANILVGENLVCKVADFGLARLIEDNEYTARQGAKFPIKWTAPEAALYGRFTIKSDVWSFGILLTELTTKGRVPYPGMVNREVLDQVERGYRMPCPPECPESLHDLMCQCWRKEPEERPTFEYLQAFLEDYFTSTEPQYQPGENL

Row | pIC50 (Met) | pIC50 (Jnk1) | pIC50 (Src) | pIC50 (c-Raf-1) | pIC50 (Flt1) | pIC50 (Akt3) | pIC50 (Pyk2) | pIC50 (Abl) | Structure (SMILES)
1 | ≥ 5.00 | ≥ 5.00 | ≥ 5.00 | ≥ 5.00 | ≥ 5.00 | ≥ 5.00 |  |  | O=C(c1cccc(O)c1F)c1c[nH]c2ncc(-c3cccnc3)cc12 [Compound P-0027, (2-Fluoro-3-hydroxy-phenyl)-(5-pyridin-3-yl-1H-pyrrolo[2,3-b]pyridin-3-yl)-methanone]
2 | ≥ 5.00 |  |  | ≥ 5.00 |  |  | ≥ 5.00 |  | O=C(Nc1ccc(Cc2c[nH]c3ncccc23)cc1)Nc1cccc(C(F)(F)F)c1 [Compound P-0262, 1-[4-(1H-Pyrrolo[2,3-b]pyridin-3-ylmethyl)-phenyl]-3-(3-trifluoromethyl-phenyl)-urea]
3 | ≥ 5.00 | ≥ 5.00 | ≥ 5.00 | ≥ 5.00 | ≥ 5.00 | ≥ 5.00 | ≥ 5.00 | ≥ 5.00 | CC(=O)Nc1cccc(-c2cnc3[nH]cc(C(=O)c4cc(O)ccc4F)c3c2)c1 [Compound P-0001]
4 | ≥ 5.00 | ≥ 5.00 | ≥ 5.00 | ≥ 5.00 |  | ≥ 5.00 |  |  | Cc1c(O)cccc1C(=O)c1c[nH]c2ncc(-c3cccnc3)cc12 [Compound P-0006, (3-Hydroxy-2-methyl-phenyl)-(5-pyridin-3-yl-1H-pyrrolo[2,3b]pyridin-3-yl)-methanone]
5 | ≥ 5.00 | ≥ 5.00 | ≥ 5.00 | ≥ 5.00 | ≥ 5.00 |  |  |  | Cc1c(O)cccc1C(=O)c1c[nH]c2ncc(-c3ccccc3)cc12 [Compound P-0016, (3-Hydroxy-2-methyl-phenyl)-(5-phenyl-1H-pyrrolo[2,3b]pyridin-3-yl)-methanone]
6 | ≥ 5.00 | ≥ 5.00 | ≥ 5.00 | ≥ 5.00 | ≥ 5.00 | ≥ 5.00 |  |  | CS(=O)(=O)Nc1cccc(-c2cnc3[nH]cc(C(=O)c4cccc(O)c4F)c3c2)c1 [Compound P-0038, N-{3-[3-(2-Fluoro-3-hydroxy-benzoyl)-1H-pyrrolo[2,3-b]pyridin-5-yl]-phenyl}-methanesulfonamide]
7 | ≥ 5.00 | ≥ 5.00 | ≥ 5.00 | ≥ 5.00 | ≥ 5.00 | ≥ 5.00 |  | ≥ 5.00 | Nc1cccc(-c2cnc3[nH]cc(C(=O)c4cc(O)ccc4F)c3c2)c1 [Compound P-0002]
8 | ≥ 5.00 | ≥ 5.00 | ≥ 5.00 | ≥ 5.00 | ≥ 5.00 | ≥ 5.00 |  |  | CS(=O)(=O)c1cccc(-c2cnc3[nH]cc(C(=O)c4cccc(O)c4F)c3c2)c1 [Compound P-0026, (2-Fluoro-3-hydroxy-phenyl)-[5-(3-methanesulfonylphenyl)1H-pyrrolo[2,3-b]pyridin-3-yl]-methanone]
9 | ≥ 5.00 |  | ≥ 5.00 |  |  |  |  | ≥ 5.00 | Cc1ccc(F)cc1C(=O)c1c[nH]c2ncc(-c3cccc(NS(C)(=O)=O)c3)cc12 [Compound P-0028]
10 | ≥ 5.00 | ≥ 5.00 | ≥ 5.00 | ≥ 5.00 | ≥ 5.00 | ≥ 5.00 |  |  | CS(=O)(=O)c1cccc(-c2cnc3[nH]cc(C(=O)c4cc(O)ccc4F)c3c2)c1 [Compound P-0008, (2-Fluoro-5-hydroxy-phenyl)-[5-(3-methanesulfonyl-phenyl)-1H-pyrrolo[2,3-b]pyridin-3-yl]-methanone]
11 | ≥ 5.00 | ≥ 5.00 |  | ≥ 5.00 |  |  | ≥ 5.00 |  | COc1ccc(C(=O)c2c[nH]c3ncc(-c4cccc(/C=C/C(=O)O)c4)cc23)c(Cl)c1 [Compound P-0015]
12 | ≥ 5.00 |  | ≥ 5.00 |  | ≥ 5.00 | ≥ 5.00 | ≥ 5.00 | ≥ 5.00 | Cn1cc(C(F)(F)F)c(-c2ccc(S(=O)(=O)NCc3c[nH]c4ncccc34)s2)n1 [Compound P-0041]
13 | ≥ 5.00 |  |  |  |  | ≥ 5.00 | ≥ 5.00 | ≥ 5.00 | Cc1ccc(S(=O)(=O)NCc2c[nH]c3ncccc23)cc1 [Compound P-0058]
14 | ≥ 5.00 | ≥ 5.00 | ≥ 5.00 | ≥ 5.00 | ≥ 5.00 |  |  |  | Cc1c(NS(C)(=O)=O)cccc1C(=O)c1c[nH]c2ncc(-c3ccccc3)cc12 [Compound P-0082, N-[2-Methyl-3-(5-phenyl-1H-pyrrolo[2,3-b]pyridine-3-carbonyl)-phenyl]-methanesulfonamide]
15 | ≥ 5.00 | ≥ 5.00 | ≥ 5.00 | ≥ 5.00 | ≥ 5.00 |  | ≥ 5.00 |  | Oc1ccc(F)c(Cc2c[nH]c3ncc(-c4cccnc4)cc23)c1F [Compound P-0078, 2,4-difluoro-3-(5-pyridin-3-yl-1H-pyrrolo[2,3-b]pyridin-3-ylmethyl)-phenol]
16 | ≥ 5.00 | ≥ 5.00 |  | ≥ 5.00 |  |  | ≥ 5.00 |  | Oc1cccc(Cc2c[nH]c3ncc(-c4cccs4)cc23)c1F [Compound P-0052, 2-Fluoro-3-(5-thiophen-2-yl-1H-pyrrolo[2,3-b]pyridin-3-ylmethyl)-phenol]
17 | ≥ 5.00 | ≥ 5.00 | ≥ 5.00 | ≥ 5.00 | ≥ 5.00 | ≥ 5.00 |  |  | Cc1c(O)cccc1C(=O)c1c[nH]c2ncc(-c3cccs3)cc12 [Compound P-0114, (3-Hydroxy-2-methyl-phenyl)-(5-thiophen-2-yl-1H-pyrrolo[2,3b]pyridin-3-yl)-methanone]
18 | ≥ 5.00 | ≥ 5.00 | ≥ 5.00 |  |  |  | ≥ 5.00 |  | CCCC(=O)Nc1ccc(F)c(Cc2c[nH]c3ncc(-c4cccnc4)cc23)c1F [Compound P-1280]
19 | ≥ 5.00 | ≥ 5.00 | ≥ 5.00 |  |  |  |  | ≥ 5.00 | OCCOc1ccc(F)c(Cc2c[nH]c3ncc(-c4cccnc4)cc23)c1F [Compound P-1394, 2-[2,4-Difluoro-3-(5-pyridin-3-yl-1H-pyrrolo[2,3-b]pyridin-3-ylmethyl)-phenoxy]-ethanol]
20 | ≥ 5.00 | ≥ 5.00 | ≥ 5.00 | ≥ 5.00 |  | ≥ 5.00 |  |  | CC(=O)Nc1cccc(-c2cnc3[nH]cc(C(=O)c4cccc(O)c4F)c3c2)c1 [Compound P-0035, N-{3-[3-(2-Fluoro-3-hydroxy-benzoyl)-1H-pyrrolo[2,3-b]pyridin-5-yl]-phenyl}-acetamide]
